Columns and labels:
[1] = The drug is tested on Collinsella intestinalis strain: DSM13280 for biotransformation. The drug concentrations were measured before and after a 12-h incubation by liquid-chromatography-coupled mass spectrometry (LC–MS); settings: 2 µM
[2] = The drug is tested on Bacteroides coprophilus strain: DSM18228 for biotransformation. The drug concentrations were measured before and after a 12-h incubation by liquid-chromatography-coupled mass spectrometry (LC–MS); settings: 2 µM
[3] = The drug is tested on Bacteroides finegoldii strain: DSM17565 for biotransformation. The drug concentrations were measured before and after a 12-h incubation by liquid-chromatography-coupled mass spectrometry (LC–MS); settings: 2 µM
[4] = The drug is tested on Anaerococcus hydrogenalis strain: DSM7454 for biotransformation. The drug concentrations were measured before and after a 12-h incubation by liquid-chromatography-coupled mass spectrometry (LC–MS); settings: 2 µM
[5] = The drug is tested on Blautia luti strain: DSM14534 for biotransformation. The drug concentrations were measured before and after a 12-h incubation by liquid-chromatography-coupled mass spectrometry (LC–MS); format: ADME; design: dose 2 uM, timepoint 0 vs 12 hours; settings: 2 µM
[6] = The drug is tested on Clostridium asparagiforme strain: DSM15981 for biotransformation. The drug concentrations were measured before and after a 12-h incubation by liquid-chromatography-coupled mass spectrometry (LC–MS); format: ADME; design: dose 2 uM, timepoint 0 vs 12 hours; settings: enterocloster asparagiformis, 2 µM
[7] = The drug is tested on Clostridium sporogenes strain: ATCC15579 for biotransformation. The drug concentrations were measured before and after a 12-h incubation by liquid-chromatography-coupled mass spectrometry (LC–MS); settings: 2 µM
[8] = The drug is tested on Coprococcus comes strain: ATCC27758 for biotransformation. The drug concentrations were measured before and after a 12-h incubation by liquid-chromatography-coupled mass spectrometry (LC–MS); format: ADME; design: dose 2 uM, timepoint 0 vs 12 hours; settings: 2 µM
[9] = The drug is tested on Dorea formicigenerans strain: ATCC27755 for biotransformation. The drug concentrations were measured before and after a 12-h incubation by liquid-chromatography-coupled mass spectrometry (LC–MS); settings: 2 µM
[10] = The drug is tested on Eubacterium ventriosum strain: ATCC27560 for biotransformation. The drug concentrations were measured before and after a 12-h incubation by liquid-chromatography-coupled mass spectrometry (LC–MS); format: ADME; design: dose 2 uM, timepoint 0 vs 12 hours; settings: 2 µM
[11] = The drug is tested on Ruminococcus gnavus strain: ATCC29149 for biotransformation. The drug concentrations were measured before and after a 12-h incubation by liquid-chromatography-coupled mass spectrometry (LC–MS); settings: mediterraneibacter gnavus, 2 µM
[12] = The drug is tested on Subdoligranulum variabile strain: DSM15176 for biotransformation. The drug concentrations were measured before and after a 12-h incubation by liquid-chromatography-coupled mass spectrometry (LC–MS); settings: 2 µM
[13] = bacteroides intestinalis, 12 h, 2 µM
Description: The drug is tested on Bacteroides intestinalis strain: DSM17393 for biotransformation. The drug concentrations were measured before and after a 12-h incubation by liquid-chromatography-coupled mass spectrometry (LC–MS)

[14] = bacteroides stercoris, 12 h, 2 µM
Description: The drug is tested on Bacteroides stercoris strain: ATCC43183 for biotransformation. The drug concentrations were measured before and after a 12-h incubation by liquid-chromatography-coupled mass spectrometry (LC–MS)

[15] = bacteroides thetaiotaomicron, 12 h, 2 µM
Description: The drug is tested on Bacteroides thetaiotaomicron strain: 7330 for biotransformation. The drug concentrations were measured before and after a 12-h incubation by liquid-chromatography-coupled mass spectrometry (LC–MS)

[16] = segatella copri, 12 h, 2 µM
Description: The drug is tested on Prevotella copri strain: DSM18205 for biotransformation. The drug concentrations were measured before and after a 12-h incubation by liquid-chromatography-coupled mass spectrometry (LC–MS)

[17] = roseburia intestinalis, 12 h, 2 µM
Description: The drug is tested on Roseburia intestinalis strain: L1-82 for biotransformation. The drug concentrations were measured before and after a 12-h incubation by liquid-chromatography-coupled mass spectrometry (LC–MS)

[18] = limosilactobacillus reuteri cf48-3a, 12 h, 2 µM
Description: The drug is tested on Lactobacillus reuteri CF48-3A strain: BEI HM-102 for biotransformation. The drug concentrations were measured before and after a 12-h incubation by liquid-chromatography-coupled mass spectrometry (LC–MS)

[19] = akkermansia muciniphila, 12 h, 2 µM
Description: The drug is tested on Akkermansia muciniphila strain: ATCC BAA-835 for biotransformation. The drug concentrations were measured before and after a 12-h incubation by liquid-chromatography-coupled mass spectrometry (LC–MS)

[20] = The drug is tested on Bacteroides fragilis strain: HMW610 for biotransformation. The drug concentrations were measured before and after a 12-h incubation by liquid-chromatography-coupled mass spectrometry (LC–MS); settings: 2 µM

Measured: Bacterial Biotransformation

CN(C)CCc1c[nH]c2ccc(CS(=O)(=O)N3CCCC3)cc12 [ALMOTRIPTAN]
not listed: [18] | [19] | [20]
Compound NOT metabolized: all other assays above

C=CCc1ccccc1OCC(O)CNC(C)C (stereo unspecified) [ALPRENOLOL]
not listed: [19] | [20]
Compound NOT metabolized: all other assays above

CCN1CCCC1CNC(=O)c1cc(S(=O)(=O)CC)c(N)cc1OC (stereo unspecified) [AMISULPRIDE]
not listed: [20]
Compound NOT metabolized: all other assays above

OC(CCN1CCCCC1)(c1ccccc1)C1CC2C=CC1C2 (stereo unspecified) [BIPERIDEN]
not listed: [20]
Compound NOT metabolized: all other assays above

CCN(CC)CCOCCOC(=O)C1(c2ccccc2)CCCC1.O=C(O)CC(O)(CC(=O)O)C(=O)O [CARBETAPENTANE CITRATE]
not listed: [20]
Compound metabolized: all other assays above

c1ccc([C@H]2CN3CCSC3=N2)cc1 [LEVAMISOLE]
Compound NOT metabolized: [1] | [3] | [5] | [10] | [11] | [12] | [16] | [17]
not listed: [18] | [19]
Compound metabolized: all other assays above

CC(Oc1c(Cl)cccc1Cl)C1=NCCN1 (stereo unspecified) [LOFEXIDINE]
Compound NOT metabolized: [1] | [10]
not listed: [20]
Compound metabolized: all other assays above

Nc1ccc(/N=N/c2ccccc2)c(N)n1 [PHENAZOPYRIDINE]
Compound NOT metabolized: [2] | [18]
not listed: [14] | [19]
Compound metabolized: all other assays above

CC(=O)OCC(=O)NCCCOc1cccc(CN2CCCCC2)c1 [ROXATIDINE ACETATE]
Compound NOT metabolized: [11] | [18] | [19]
not listed: [7]
Compound metabolized: all other assays above

Reference: ChEMBL document CHEMBL5303573, “Mapping human microbiome drug metabolism by gut bacteria and their genes” (Nature, 2019)
